Patent US20100210649A1, “PYRIDAZINONES AND FURAN-CONTAINING COMPOUNDS” (Sloan-Kettering Institute for Cancer Research, priority 2006, published 2010)
Where two headings read alike, the source gives them in different places.

What was measured:
H3255 = experiment: Non Small Cell Lung Cancer proliferation assay (Alamar Blue reduction), H3255; type: cell-based, human; conditions: Homo sapiens
Summary of the method: (§1)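 Compounds are tested at 1% DMSO final concentration against adherent NSCLC cells for 48 h at 37° C, with cytotoxicity measured by Alamar Blue reduction after a further 48 h incubation.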

H23 = experiment: Dose response study (Alamar Blue), H23; type: cell-based; conditions: Homo sapiens, read-out: IC50 H23
Procedure: (§2) Dose response studies against 34 compounds from the pyridazinone and phenylfuran-carboxamide class were conducted. […] In addition, Tarceva was included in these dose response studies.
(§3) The dose response studies were done with the following standard procedure. First, the cells were counted and dispensed at 250 cells/well into 384-well microplates with compound. The cells were incubated for 48 hours at 37 C to complete treatment, and then alamar blue was added for an additional 48 hours. Finally, alamar blue reduction was measured and the data was loaded into ORIS, our data screening acquisition platform.

H358 = experiment: Non Small Cell Lung Cancer proliferation assay (Alamar Blue reduction), H358; type: cell-based; conditions: Homo sapiens
Summary of the method: as §1

H1975 = experiment: Non Small Cell Lung Cancer proliferation assay (Alamar Blue reduction), H1975; type: cell-based, human; conditions: Homo sapiens
Summary of the method: as §1

[1] = tested on: HPL1D (human peripheral lung epithelial) cell line; experiment: Cell proliferation / dose response (Alamar Blue), HPL1D; type: cell-based; conditions: read-out: IC50 HPL1D
Procedure: WI-38: human lung fibroblast cell line. […] WT: wildtype; WT*: over-expressed wildtype. Dose response studies against 34 compounds from the pyridazinone and phenylfuran-carboxamide class were conducted. […] In addition, Tarceva was included in these dose response studies. The dose response studies were done with the following standard procedure. […] The cells were incubated for 48 hours at 37 C to complete treatment, and then alamar blue was added for an additional 48 hours. Finally, alamar blue reduction was measured and the data was loaded into ORIS, our data screening acquisition platform.

in vitro = conditions: human
H460 = experiment: Dose response study (Alamar Blue), H460; type: cell-based; conditions: Homo sapiens, read-out: IC50 H460
Procedure: as §2, §3

H2122 = experiment: Dose response study (Alamar Blue), H2122; type: cell-based; conditions: Homo sapiens, read-out: IC50 H2122
Procedure: as §2, §3

PC9 = experiment: Dose response study (Alamar Blue), PC9; type: cell-based; conditions: Homo sapiens, read-out: IC50 PC9
Procedure: as §2, §3

[2] = NCI-H3255, 48 h, H3255, 12 point doubling dilution 10 uM to 5 nM, 48 h treatment, alamar blue additional 48 h, read-out: IC50 H3255
[3] = NCI-H3255, dose response 10 M to 5 nM, IC50, read-out: Dose Response (uM) H3255
[4] = NCI-H23, H23, 12 point doubling dilution 10 uM to 5 nM, 48 h treatment, alamar blue additional 48 h
[5] = NCI-H358, H358, 12 point doubling dilution 10 uM to 5 nM, 48 h treatment, alamar blue additional 48 h, read-out: IC50 H358
[6] = NCI-H358, read-out: Dose Response (uM) H358
[7] = NCI-H1975, 48 h, H1975, 12 point doubling dilution 10 uM to 5 nM, 48 h treatment, alamar blue additional 48 h, read-out: IC50 H1975
[8] = NCI-H1975, dose response 10 M to 5 nM, IC50, read-out: Dose Response (uM) H1975
[9] = HPL1D, 12 point doubling dilution 10 uM to 5 nM, 48 h treatment, alamar blue additional 48 h
[10] = NCI-H460, H460, 12 point doubling dilution 10 uM to 5 nM, 48 h treatment, alamar blue additional 48 h
[11] = NCI-H2122, H2122, 12 point doubling dilution 10 uM to 5 nM, 48 h treatment, alamar blue additional 48 h
[12] = PC-9, PC9, 12 point doubling dilution 10 uM to 5 nM, 48 h treatment, alamar blue additional 48 h

Row | Structure (SMILES) | IC50 (H3255; [2]) [µM] | IC50 (H3255; [3]) [µM] | IC50 (H23; [4]) [nM] | IC50 (H358; [5]) [µM] | IC50 (H358; [6]) [µM] | IC50 (H1975; [7]) [µM] | IC50 (H1975; [8]) [µM] | IC50 [1, 9] [nM] | IC50 at 72 h (in vitro; CytoTox (uM) NHBE) [µM] | IC50 at 72 h (in vitro; CytoTox (uM) WI-38) [µM] | IC50 (H460; [10]) [nM] | IC50 (H2122; [11]) [nM] | IC50 (PC9; [12]) [nM] | other results
1 | O=c1c(Br)c(Br)cnn1-c1ccccn1 [compound 267073] | 0.45 | 0.66 | 70 | 0.14 | 0.07 | 0.16 | 0.09 | 110 | 1.33 | 0.89 | 420 | 780 | 420 | –
2 | O=c1c(Br)c(Br)cnn1-c1cccc(C(F)(F)F)c1 [compound 267072] | 1.64 | 1 | 840 | 0.85 | 0.15 | 0.93 | 0.2 | 510 | 1.43 | 2.17 | 2760 | 4610 | 2590 | –
3 | O=c1c(Cl)c(Cl)cnn1Cc1ccccc1 [compound 267069] | > 10 | 6.5 | 2530 | 6.66 | 4.76 | 3.6 | 2.16 | 5250 | 7.32 | > 10 | > 10000 | 9040 | 6210 | –
4 | COCCOc1cccc(-n2ncc(Br)c(Br)c2=O)c1 [compound 267084] | 0.71 | 0.38 | 170 | 0.27 | 0.13 | 0.21 | 0.23 | 180 | 2.56 | 2.33 | 890 | 1120 | 680 | –
5 | O=c1c(Cl)c(Cl)cnn1-c1cccc(C(F)(F)F)c1 [compound 176729] | 0.66 | 0.73 | 230 | 0.32 | 0.12 | 0.31 | 0.16 | 250 | 2.76 | 3.42 | 1260 | 1500 | 900 | inhibition at 10 µM (H3255; NCI-H3255, primary screening, 10 μM compound in 1% DMSO (v/v), read-out: percentage inhibition H3255): 115%; inhibition at 10 µM (H1975; NCI-H1975, primary screening, 10 μM compound in 1% DMSO (v/v), read-out: percentage inhibition H1975): 102%
6 | O=c1c(Cl)c(Cl)cnn1-c1ccccn1 [compound 267090] | 0.7 | 0.5 | 80 | 0.21 | 0.06 | 0.16 | 0.2 | 170 | 1.43 | 1.19 | 790 | 890 | 470 | –
7 | COc1cccc(-n2ncc(Br)c(Br)c2=O)c1 [compound 267083] | 0.65 | 0.35 | 210 | 0.3 | 0.13 | 0.24 | 0.23 | 220 | 1.85 | 2.6 | 910 | 1150 | 740 | –
8 | O=c1c(Cl)c(Cl)cnn1-c1ccccc1 [compound 257014] | 1.5 | 1.36 | – | – | – | 0.36 | 0.29 | – | 3.29 | 6.93 | – | – | – | IC50 (H23; NCI-H23, 48 h): 260 nM; IC50 (H358; NCI-H358, 48 h, H358, 12 point doubling dilution 10 uM to 5 nM, 48 h treatment, alamar blue additional 48 h, read-out: IC50 H358): 0.68 µM; IC50 (H358; NCI-H358, dose response 10 M to 5 nM, IC50, read-out: Dose Response (uM) H358): 0.31 µM; IC50 ([1]; 48 h): 380 nM; IC50 (H460; NCI-H460, 48 h): 2010 nM; IC50 (H2122; NCI-H2122, 48 h): 1160 nM; IC50 (PC9; PC-9, 48 h): 830 nM
9 | Cc1cc(C)cc(-n2ncc(Cl)c(Cl)c2=O)c1 [compound 257020] | 1.35 | 0.92 | 460 | 0.62 | 0.22 | 0.58 | 0.27 | 410 | 3.18 | 6.78 | 2930 | 2210 | 1550 | –
10 | CCCCc1cccc(-n2ncc(Cl)c(Cl)c2=O)c1 [compound 267063] | 8.35 | 3.89 | 5470 | 6.66 | 0.76 | 6.57 | 1.93 | 7040 | 5.34 | > 10 | > 10000 | > 10000 | 8890 | –
11 | Cc1cc(-n2ncc(Cl)c(Cl)c2=O)ccc1Br [compound 267064] | > 10 | 2.47 | 5750 | 7.65 | 0.47 | 7.58 | 0.71 | 4720 | 4.04 | > 10 | > 10000 | > 10000 | > 10000 | –
12 | O=c1c(Cl)c(Cl)cnn1-c1ccc(Cl)cc1Cl [compound 267077] | 8.75 | – | 1720 | 3.22 | 0.14 | 2.08 | 0.05 | 4950 | 1.1 | 1.74 | > 10000 | > 10000 | > 10000 | –
